Experimental data taken from article PMC3752901 (Clinical cancer research : an official journal of the …, 2013).

Tests used:
[1] = target: T1, mOct1 (Mus musculus, UniProt O08966); experiment: Uptake in HEK293 cells expressing mOct1; assay type: in vitro ADME; conditions: HEK293, 1 μM
T1 sequence (O08966 1-556): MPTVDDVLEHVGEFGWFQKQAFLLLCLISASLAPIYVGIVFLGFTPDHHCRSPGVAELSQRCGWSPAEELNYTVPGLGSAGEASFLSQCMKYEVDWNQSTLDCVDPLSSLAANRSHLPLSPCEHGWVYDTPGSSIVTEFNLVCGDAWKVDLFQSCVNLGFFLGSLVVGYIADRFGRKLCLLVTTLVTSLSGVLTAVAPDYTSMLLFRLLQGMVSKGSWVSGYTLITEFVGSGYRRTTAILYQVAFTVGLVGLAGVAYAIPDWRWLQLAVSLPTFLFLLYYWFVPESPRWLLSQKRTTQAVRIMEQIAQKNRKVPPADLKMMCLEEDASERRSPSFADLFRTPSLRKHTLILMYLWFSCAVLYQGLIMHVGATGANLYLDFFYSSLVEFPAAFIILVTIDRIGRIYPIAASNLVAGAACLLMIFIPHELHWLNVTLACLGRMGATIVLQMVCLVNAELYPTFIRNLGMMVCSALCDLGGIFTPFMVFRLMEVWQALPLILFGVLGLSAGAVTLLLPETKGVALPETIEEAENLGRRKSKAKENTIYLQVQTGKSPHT

[2] = Blood cell partitioning; assay type: in vitro ADME, mouse
[3] = target: T2, Abcc4 (Mus musculus, UniProt E9Q236); experiment: Ex vivo mucosal-to-serosal transport in isolated stomach sacs; assay type: in vitro ADME; conditions: Abcc4(−/−) vs wildtype mice
T2 sequence (E9Q236 1-1325): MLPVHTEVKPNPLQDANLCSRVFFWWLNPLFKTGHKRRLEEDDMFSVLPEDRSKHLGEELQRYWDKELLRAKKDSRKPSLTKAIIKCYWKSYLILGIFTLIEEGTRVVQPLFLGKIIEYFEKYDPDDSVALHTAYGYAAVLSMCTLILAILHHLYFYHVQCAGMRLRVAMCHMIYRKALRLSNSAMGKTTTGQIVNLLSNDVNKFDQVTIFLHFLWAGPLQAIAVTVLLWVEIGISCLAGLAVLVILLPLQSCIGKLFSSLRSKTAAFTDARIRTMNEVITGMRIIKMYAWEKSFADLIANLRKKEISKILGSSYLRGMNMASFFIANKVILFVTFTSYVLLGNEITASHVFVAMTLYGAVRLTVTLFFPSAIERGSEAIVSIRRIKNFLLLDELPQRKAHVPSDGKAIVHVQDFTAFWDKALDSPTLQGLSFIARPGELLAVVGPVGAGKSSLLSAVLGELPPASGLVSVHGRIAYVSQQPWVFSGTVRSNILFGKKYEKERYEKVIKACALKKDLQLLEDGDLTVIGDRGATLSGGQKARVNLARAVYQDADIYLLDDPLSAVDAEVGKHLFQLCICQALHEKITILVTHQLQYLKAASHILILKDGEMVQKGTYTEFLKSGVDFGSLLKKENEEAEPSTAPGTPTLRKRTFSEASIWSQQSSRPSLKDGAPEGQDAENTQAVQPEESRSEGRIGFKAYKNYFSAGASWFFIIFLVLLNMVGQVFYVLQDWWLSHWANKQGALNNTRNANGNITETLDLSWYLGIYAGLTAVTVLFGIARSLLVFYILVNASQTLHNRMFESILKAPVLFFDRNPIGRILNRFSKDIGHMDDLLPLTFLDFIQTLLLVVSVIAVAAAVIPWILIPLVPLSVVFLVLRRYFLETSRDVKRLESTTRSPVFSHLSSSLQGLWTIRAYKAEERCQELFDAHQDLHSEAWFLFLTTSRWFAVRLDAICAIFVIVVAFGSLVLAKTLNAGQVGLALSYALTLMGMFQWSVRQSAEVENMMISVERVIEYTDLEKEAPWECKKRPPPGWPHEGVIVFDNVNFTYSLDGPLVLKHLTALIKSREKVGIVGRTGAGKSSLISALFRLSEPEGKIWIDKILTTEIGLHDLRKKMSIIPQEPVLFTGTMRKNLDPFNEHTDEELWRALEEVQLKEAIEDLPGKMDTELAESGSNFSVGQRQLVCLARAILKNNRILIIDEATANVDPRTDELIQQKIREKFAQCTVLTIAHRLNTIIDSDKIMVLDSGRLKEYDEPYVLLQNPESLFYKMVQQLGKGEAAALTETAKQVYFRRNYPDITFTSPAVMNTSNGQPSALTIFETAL

- intracellular accumulation on overexpression of Oct1 [1]: did not alter intracellular accumulation
- Blood cell partitioning ([2]; Abcc4(−/−) mice): 36.1 ± 2.86%
- Blood cell partitioning ([2]; wildtype mice): 33.0 ± 1.04%
- reduction of drug transport to the serosal side with Abcc4-deficiency [3]: up to 3.9 fold
SMILES: Cc1nc(Nc2ncc(C(=O)Nc3c(C)cccc3Cl)s2)cc(N2CCN(CCO)CC2)n1 [dasatinib, Dasatinib]
